Reference: US20260215425A1, “NITRIFICATION INHIBITORS” (The University of Melbourne, priority 2022, published 2026)

Columns and labels:
[1] = tested on: N. europaea; assay: standard nitrification inhibition assay (NO2- production, Griess); assay type: cell-based, Nitrosomonas europaea; conditions: [NH4+]=3 mM, [inhibitor]=0.3 mM (10 mol %), pH 7.5, 30° C., 60 min
Method: (§1) Cells of N. multiformis and N. europaea were cultivated to the mid-exponential growth phase (OD600=0.1, [NO2^−] approximately 800 μM) and harvested by filtration onto 0.2 μm membrane filters (Mixed Cellulose Ester (MCE), Sigma Aldrich). The cells were washed with 2×100 mL of 0.1 M sodium phosphate buffer (NaPB), containing 0.2 mM MgSO4 at pH 7.5. The cells were washed from the filter paper by transferring it to a sterile 50 mL tube and resuspending in NaPB (15 mL), followed by 5 s of vortexing (Ratek, Australia) and 3 s of sonication (Vevor, Australia). […] Experiments were performed in triplicate.
(§2) In a deep 96-well plate (2 mL capacity), 980 μL of the bacterial inoculum (OD600=0.03) was added to the inhibitor (10 μL, 30 mmol L^−1 in Milli-Q water), the solutions were mixed thoroughly and pre-incubated in the dark for 5 minutes at 100 rpm and 30° C. (NH4)2SO4 (10 μL, 150 mM, from a prepared sterile solution containing 19.8 g L^−1 (NH4)2SO4 in Milli-Q water) was then added using a multi-channel pipette. The plate was covered with a with an O2 permeable membrane to ensure aeration (Breathe-Easy® sealing membrane, Sigma Aldrich) and incubated in a temperature-regulated rotary incubator (Ratek, Australia) in the dark for 60 minutes at 30° C. and 100 rpm. An aliquot of the reaction solution ([…]) was transferred to a 96-well spectrophotometric plate to which 50 µL of Griess reagent was added. The colour was allowed to develop for 15 minutes at room temperature, and the absorbance was measured at 540 nm. Each assay was accompanied by control treatments to determine the 0% and 100% NO2 signal. The percentage inhibition was calculated according to eqn. 1 from the NO2 production of the cells in NaPB (i) without additive (‘untreated cells’: 0% signal), (ii) with [NH4^+]=3 mM (‘uninhibited’ cells: 100% signal) and (iii) with [NH4^+]=3 mM and [inhibitor]=0.3 mM and 0.03 mM (10 mol % and 1 mol % of [NH4^+], ‘inhibited cells’). Experiments were performed in triplicate.

[2] = tested on: N. multiformis; assay: as above; assay type: cell-based, Nitrosospira multiformis; conditions: [NH4+]=3 mM, [inhibitor]=0.3 mM (10 mol %), pH 7.5, 30° C., 60 min
Method: as §1, §2

[3] = tested on: soils B-E; assay: soil incubation, N2O production in soils B-E
Method: Soil incubations were performed in three replicates. Each sample consisted of 6 g of sieved soil (2 mm). The soil was air-dried after collection and pre-incubated prior to the experiment for seven days at 50% water holding capacity (WHC). The soil was transferred to a gas chromatography vial (22 mL volume, clear glass, Macherey-Nagel, Germany) and compacted densely to allow 5.5-6.2 cm headspace. The soil in the vials was incubated for a total of 21 days at a constant temperature of 21° C. with an open lid to ensure gas circulation. The control incubations contained ‘untreated’ soil (deionized H2O only) and ‘fertiliser only’ soil ((NH4)2SO4; 50 mg kg^−1 soil) and accompanied each measurement. (NH4)2SO4 was applied as an aqueous solution ([…]) and introduced on the soil surface to mimic field conditions. Three inhibitor solutions were prepared from DMP and 4-MPT at concentrations of 0.5 mol %, 2.5 mol % and 5 mol % of applied fertiliser-N and applied on the soil surface. The soils reached 60% WHC after the treatments had been applied and were kept at that moisture level by periodically adding deionized water to compensate for evaporation losses. At the day of measurement (day 1, 3, 5, 7, 14 and 21 after fertilization) the vials were closed gas-tight with a rubber septum and aluminium lid and opened again after each measurement. The N2O emission was analysed using a gas chromatograph equipped with an electron capture detector and flame ionization detector (GC-ECD/FID; Clarus 580, Perkin Elmer). A linear regression slope was used to calculate N2O—N production rates, F, according to eqn. 5:
where ΔC/Δt represents the change of the N2O concentration over the time interval t in ppbv, V represents the headspace volume in L, M represents the molar mass of N in N2O, m represents the amount of soil in g dry weight, Vm represents the molar volume of ideal gases (22.414 L mol^−1) at 0° C. and 101.325 kPa, corrected for the gas sampler using T0 (273.15 K) and Ta (air temperature in K).

C#CCNC(=O)Cn1cc(CCC)nn1 [Compound 4]
% Inhibition NE [1]: 7.1 ± 1%

CCCCn1cc(CCC)nn1 [Compound N013]
% Inhibition NE [1]: 60 ± 1% | % Inhibition NM [2]: 54 ± 2%

Cc1c[nH]nc1C [DMP, 3,4-dimethylpyrazole, reference compound]
N2O production ([3]; Soil B, 0.5 mol %, Day 1): 0.318 ± 0.030 μg g^−1 soil h^−1 | N2O production ([3]; Soil B, 0.5 mol %, Day 3): 0.189 ± 0.006 μg g^−1 soil h^−1 | N2O production ([3]; Soil B, 0.5 mol %, Day 5): 0.151 ± 0.015 μg g^−1 soil h^−1 | N2O production ([3]; Soil B, 0.5 mol %, Day 7): 0.086 ± 0.043 μg g^−1 soil h^−1 | N2O production ([3]; Soil B, 0.5 mol %, Day 14): 0.136 ± 0.006 μg g^−1 soil h^−1 | N2O production ([3]; Soil B, 0.5 mol %, Day 21): 0.019 ± 0.019 μg g^−1 soil h^−1 | N2O production ([3]; Soil B, 2.5 mol %, Day 1): 0.224 ± 0.013 μg g^−1 soil h^−1 | N2O production ([3]; Soil B, 2.5 mol %, Day 3): 0.124 ± 0.008 μg g^−1 soil h^−1 | N2O production ([3]; Soil B, 2.5 mol %, Day 5): 0.060 ± 0.030 μg g^−1 soil h^−1 | N2O production ([3]; Soil B, 2.5 mol %, Day 7): 0.045 ± 0.023 μg g^−1 soil h^−1 | N2O production ([3]; Soil B, 2.5 mol %, Day 14): 0.113 ± 0.006 μg g^−1 soil h^−1 | N2O production ([3]; Soil B, 2.5 mol %, Day 21): 0.127 ± 0.000 μg g^−1 soil h^−1 | N2O production ([3]; Soil B, 5 mol %, Day 1): 0.209 ± 0.054 μg g^−1 soil h^−1 | N2O production ([3]; Soil B, 5 mol %, Day 3): 0.067 ± 0.017 μg g^−1 soil h^−1 | N2O production ([3]; Soil B, 5 mol %, Day 5): 0.058 ± 0.014 μg g^−1 soil h^−1 | N2O production ([3]; Soil B, 5 mol %, Day 7): 0.020 ± 0.010 μg g^−1 soil h^−1 | N2O production ([3]; Soil B, 5 mol %, Day 14): 0.052 ± 0.003 μg g^−1 soil h^−1 | N2O production ([3]; Soil B, 5 mol %, Day 21): 0.037 ± 0.019 μg g^−1 soil h^−1 | N2O production ([3]; Soil C, 0.5 mol %, Day 1): 0.283 ± 0.008 μg g^−1 soil h^−1 | N2O production ([3]; Soil C, 0.5 mol %, Day 3): 0.183 ± 0.003 μg g^−1 soil h^−1 | N2O production ([3]; Soil C, 0.5 mol %, Day 5): 0.081 ± 0.041 μg g^−1 soil h^−1 | N2O production ([3]; Soil C, 0.5 mol %, Day 7): 0.162 ± 0.037 μg g^−1 soil h^−1 | N2O production ([3]; Soil C, 0.5 mol %, Day 14): 0.105 ± 0.007 μg g^−1 soil h^−1 | N2O production ([3]; Soil C, 0.5 mol %, Day 21): 0.101 ± 0.011 μg g^−1 soil h^−1 | N2O production ([3]; Soil C, 2.5 mol %, Day 1): 0.276 ± 0.006 μg g^−1 soil h^−1 | N2O production ([3]; Soil C, 2.5 mol %, Day 3): 0.161 ± 0.006 μg g^−1 soil h^−1 | N2O production ([3]; Soil C, 2.5 mol %, Day 5): 0.133 ± 0.006 μg g^−1 soil h^−1 | N2O production ([3]; Soil C, 2.5 mol %, Day 7): 0.113 ± 0.005 μg g^−1 soil h^−1 | N2O production ([3]; Soil C, 2.5 mol %, Day 14): 0.086 ± 0.006 μg g^−1 soil h^−1 | N2O production ([3]; Soil C, 2.5 mol %, Day 21): 0.089 ± 0.005 μg g^−1 soil h^−1 | N2O production ([3]; Soil C, 5 mol %, Day 1): 0.228 ± 0.017 μg g^−1 soil h^−1 | N2O production ([3]; Soil C, 5 mol %, Day 3): 0.125 ± 0.006 μg g^−1 soil h^−1 | N2O production ([3]; Soil C, 5 mol %, Day 5): 0.099 ± 0.008 μg g^−1 soil h^−1 | N2O production ([3]; Soil C, 5 mol %, Day 7): 0.098 ± 0.010 μg g^−1 soil h^−1 | N2O production ([3]; Soil C, 5 mol %, Day 14): 0.085 ± 0.009 μg g^−1 soil h^−1 | N2O production ([3]; Soil C, 5 mol %, Day 21): 0.095 ± 0.000 μg g^−1 soil h^−1 | N2O production ([3]; Soil D, 0.5 mol %, Day 1): 0.131 ± 0.001 μg g^−1 soil h^−1 | N2O production ([3]; Soil D, 0.5 mol %, Day 3): 0.133 ± 0.003 μg g^−1 soil h^−1 | N2O production ([3]; Soil D, 0.5 mol %, Day 5): 0.063 ± 0.003 μg g^−1 soil h^−1 | N2O production ([3]; Soil D, 0.5 mol %, Day 7): 0.112 ± 0.008 μg g^−1 soil h^−1 | N2O production ([3]; Soil D, 0.5 mol %, Day 14): 0.072 ± 0.009 μg g^−1 soil h^−1 | N2O production ([3]; Soil D, 0.5 mol %, Day 21): 0.098 ± 0.011 μg g^−1 soil h^−1 | N2O production ([3]; Soil D, 2.5 mol %, Day 1): 0.073 ± 0.037 μg g^−1 soil h^−1 | N2O production ([3]; Soil D, 2.5 mol %, Day 3): 0.120 ± 0.005 μg g^−1 soil h^−1 | N2O production ([3]; Soil D, 2.5 mol %, Day 5): 0.067 ± 0.006 μg g^−1 soil h^−1 | N2O production ([3]; Soil D, 2.5 mol %, Day 7): 0.115 ± 0.012 μg g^−1 soil h^−1 | N2O production ([3]; Soil D, 2.5 mol %, Day 14): 0.070 ± 0.006 μg g^−1 soil h^−1 | N2O production ([3]; Soil D, 2.5 mol %, Day 21): 0.063 ± 0.003 μg g^−1 soil h^−1 | N2O production ([3]; Soil D, 5 mol %, Day 1): 0.114 ± 0.015 μg g^−1 soil h^−1 | N2O production ([3]; Soil D, 5 mol %, Day 3): 0.112 ± 0.006 μg g^−1 soil h^−1 | N2O production ([3]; Soil D, 5 mol %, Day 5): 0.039 ± 0.021 μg g^−1 soil h^−1 | N2O production ([3]; Soil D, 5 mol %, Day 7): 0.102 ± 0.014 μg g^−1 soil h^−1 | N2O production ([3]; Soil D, 5 mol %, Day 14): 0.056 ± 0.004 μg g^−1 soil h^−1 | N2O production ([3]; Soil D, 5 mol %, Day 21): 0.069 ± 0.007 μg g^−1 soil h^−1 | N2O production ([3]; Soil E, 0.5 mol %, Day 1): 0.053 ± 0.002 μg g^−1 soil h^−1 | N2O production ([3]; Soil E, 0.5 mol %, Day 3): 0.037 ± 0.006 μg g^−1 soil h^−1 | N2O production ([3]; Soil E, 0.5 mol %, Day 5): 0.015 ± 0.008 μg g^−1 soil h^−1 | N2O production ([3]; Soil E, 0.5 mol %, Day 7): 0.000 ± 0.000 μg g^−1 soil h^−1 | N2O production ([3]; Soil E, 0.5 mol %, Day 14): 0.000 ± 0.000 μg g^−1 soil h^−1 | N2O production ([3]; Soil E, 0.5 mol %, Day 21): 0.000 ± 0.000 μg g^−1 soil h^−1 | N2O production ([3]; Soil E, 2.5 mol %, Day 1): 0.080 ± 0.009 μg g^−1 soil h^−1 | N2O production ([3]; Soil E, 2.5 mol %, Day 3): 0.014 ± 0.014 μg g^−1 soil h^−1 | N2O production ([3]; Soil E, 2.5 mol %, Day 5): 0.000 ± 0.000 μg g^−1 soil h^−1 | N2O production ([3]; Soil E, 2.5 mol %, Day 7): 0.000 ± 0.000 μg g^−1 soil h^−1 | N2O production ([3]; Soil E, 2.5 mol %, Day 14): 0.008 ± 0.008 μg g^−1 soil h^−1 | N2O production ([3]; Soil E, 2.5 mol %, Day 21): 0.000 ± 0.000 μg g^−1 soil h^−1 | N2O production ([3]; Soil E, 5 mol %, Day 1): 0.045 ± 0.011 μg g^−1 soil h^−1 | N2O production ([3]; Soil E, 5 mol %, Day 3): 0.011 ± 0.011 μg g^−1 soil h^−1 | N2O production ([3]; Soil E, 5 mol %, Day 5): 0.000 ± 0.000 μg g^−1 soil h^−1 | N2O production ([3]; Soil E, 5 mol %, Day 7): 0.000 ± 0.000 μg g^−1 soil h^−1 | N2O production ([3]; Soil E, 5 mol %, Day 14): 0.007 ± 0.007 μg g^−1 soil h^−1 | N2O production ([3]; Soil E, 5 mol %, Day 21): 0.000 ± 0.000 μg g^−1 soil h^−1 | N2O production rate ([3]; soil B, 0.5 mol % (lowest application rate), day 1): 0.32 ng g^−1 soil h^−1 | N2O production rate relative to the uninhibited soil ([3]; soil B, 0.5 mol %, day 1): approximately 50% | N2O production rate relative to that in the absence of the inhibitor ([3]; soil B, 2.5 mol %): approximately 67% | N2O production rate relative to that in the absence of the inhibitor ([3]; soil B, 5 mol %): approximately 67% | N2O formation rate compared to the uninhibited soil ([3]; soil C, 0.5 mol % and 2.5 mol %, first two weeks (P>0.05)): did not show a significantly reduced N2O formation rate | N2O production rate ([3]; soil C, highest application rate (5 mol %), day 21): 0.095 ng g^−1 soil h^−1 | N2O production rates compared to the uninhibited soil ([3]; soil D (P>0.05)): No significant difference | N2O production beyond day 5 ([3]; soil E, 5 mol %): no N2O production was detected
